In patent US20260364061A1, “COMPOUNDS, COMPOSITIONS, AND METHODS FOR THE TREATMENT OF CANCER” (Ohio State Innovation Foundation, priority 2023, published 2026):
Read-outs that look alike come from different tables or passages of the source.

Experiments:
Lipo863 cells = assay: Spheroid formation in matrigel extracellular matrix scaffold; type: cell-based, human; conditions: 14-day treatment; FIG. 19
Excerpt: FIG. 19. To evaluate the impact of IWS1 inhibition on spheroid formation, a matrigel extracellular matrix scaffold was employed.
To evaluate the impact of IWS1 inhibition on spheroid formation, a matrigel extracellular matrix scaffold was employed.

[1] = tested on: Empty Vector (EV) dedifferentiated liposarcoma cells (cell lines Lipo863 and Lipo815); assay: Migration assay, Empty Vector (EV) control cells; type: cell-based, human; conditions: for reduction in cell migration, Empty Vector (EV): 24 hours of treatment, EV cells, non-cytotoxic concentration, vs control group, FIG. 16A-16B
Experimental: (§1) FIG. 16A-16B. Evaluation of the effect of IWS1 inhibitors identified from in silico screening on the migration of cancer cells. […] The migration assay was performed using two cell groups: Empty Vector (EV, Negative control) and shIWS1 (IWS1 knockdown).
FIG. 17. Evaluation of the dose-dependent effect of IWS1 inhibitors identified from in silico screening on the migration of cancer cells. Cell migration in vitro represents to some extent the ability of cells to metastasize in vivo.
(§2) To evaluate these compounds, we used dedifferentiated cell lines Lipo863 and Lipo815 as an in-vitro model of dedifferentiated liposarcoma (DDLPS). […] FIG. 15A-15C. Using these candidates as potential pharmacological inhibitors of IWS1, we expected to reproduce/mimic phenotypical changes specific for lentiviral IWS1 knockdown. […] We performed a migration assay to assess the ability of cells to migrate after 24 hours of treatment compared to intact cells (EV) as well as IWS1 knockdown cells (shIWS1). Using drug concentrations that would not affect the viability of the cells, we sought to evaluate predominantly the migratory ability of cells. […] FIG. 17.

[2] = tested on: shIWS1 (IWS1 knockdown) dedifferentiated liposarcoma cells (cell lines Lipo863 and Lipo815); assay: Migration assay, IWS1 knockdown (shIWS1) cells; type: cell-based, human; conditions: 24 hours of treatment, vs non-treatment control
Experimental: as §1, §2

unresectable LPS = conditions: patients with unresectable LPS; cited from earlier work
IWS1/Spt6 complex = assay: Co-immunoprecipitation of the IWS1/Spt6 complex from treated cells; type: cell-based, human; conditions: Co-IP after 48 hours of treatment; vs DMSO negative control
Excerpt: The Co-IP method allowed us to analyze IWS1/Spt6 protein complex directly and assess the efficiency of the drug candidates to disrupt the complex.

IWS1 = biological target: T1, IWS1 (Homo sapiens, UniProt Q96ST2); assay: Nuclear/cytosolic fraction analysis of IWS1 distribution; type: cell-based; conditions: 20 uM; 48-hour treatment; DMSO negative control ratio 0.75
T1 construct: document uses human liposarcoma lines; nuclear/cytosolic fractionation
Excerpt: The binding of the small molecule to IWS1 may cause the redistribution of the latter in the cell (cytoplasmic vs nuclear locations) due to conformational changes of the protein or disruption of its functions. To characterize the effect of a drug candidate on the distribution of IWS1 in the cell, we performed fraction analysis by separating cytoplasmic and nuclear proteins.

[3] = tested on: invasive DDLPS cell line Lipo246; assay: Invasion of DDLPS cells; type: cell-based; conditions: 48 h, read-out: decrease in invasion ability
Excerpt: FIG. 18. Evaluation of the effect of IWS1 inhibitors identified from in silico screening on the […] of cancer cells. Invasiveness is important parameter used to characterize the aggressive behavior of cancer cells.
Invasiveness is important parameter used to characterize the aggressive behavior of cancer cells.

[4] = tested on: dedifferentiated liposarcoma (DDLPS) cell line Lipo863; assay: Cell cytotoxicity (MTS) assay; conditions: Homo sapiens

Structure (SMILES)	spheroid formation: number of spheroids (Lipo863 cells)	spheroid formation: size of spheroids (Lipo863 cells)	reduction in cell migration, Empty Vector (EV) [1] [%]	reduction in migration, shIWS1 cells [2]	other results
Clc1ccc2c(c1)CCc1cccnc1C2=C1CCNCC1 [Desloratadine]	significantly reduced	significantly reduced			
CN1CCC(=C2c3ccccc3C=Cc3ccccc32)CC1 [Cyproheptadine]			24	no significant reduction	
COc1cccc2c1C(=O)c1c(O)c3c(c(O)c1C2=O)C[C@@](O)(C(=O)CO)C[C@@H]3O[C@H]1C[C@H](N)[C@H](O)[C@H](C)O1 [Doxorubicin]					5-year survival (unresectable LPS): 20-30%; response rate (unresectable LPS): 25%
CN1CCC(=C2c3ccccc3CC(=O)c3sccc32)CC1 [Ketotifen]	significantly reduced	significantly reduced	18	no significant reduction	decrease in migration ability (dose-dependent) ([1]; 1-10 uM solutions, FIG. 17): 18-44%; decrease in amount of IWS1/Spt6 complex pulled down (IWS1/Spt6 complex): more than 50%; increase of ratio between nuclear and cytosolic fractions of IWS1 (IWS1): 1.1; inhibition at 20 µM [3]: 30%; IC50 ([4]; read-out: IC50 (cell cytotoxicity assay)): 63 µM; IC50 ([4]; read-out: IC50 (the concentration at which the drug kills 50% of cancer cells)): 63 µM
